This is an account of results in patent US10188743B2, “Cytisine-linked isoflavonoid antineoplastic agents for the treatment of cancer” (UNIVERSITY OF KENTUCKY RESEARCH FOUNDATION, priority 2016, dated 2019).

The test system of test [1] is AMPK. The test can be described thus: AMPK activation (levels of phosphorylated AMPK, Western blotting). The class given is cell-based. The method, then: (§1) Biochemistry. Western blotting: Cells were lysed in the appropriate volume of lysis buffer (50 mM HEPES, 100 mM NaCl, 2 mM EDTA, 1% glycerol, 50 mM NaF, 1 mM Na3VO4, 1% Triton X-100, with protease inhibitors). The following antibodies were used: HSD17B4 (GeneTex, GTX103864), AMPK (Cell Signaling, 2532), pAMPK (Cell Signaling, 2535), ACC (Cell Signaling, 3676), pACC (Cell Signaling, 11818), p^70 (Cell Signaling, 2708), p-p^70 (Cell Signaling, 9914), S6 (Cell Signaling, 2217), pS6 (Cell Signaling, 4858), MCCA (GeneTex, GTX110062), tubulin (Hybridoma Bank, E7), Actin (Sigma, A1978), His-tag (BD Pharmingen, 552564).
(In general: Immunoblotting shows a protein as a band on a membrane.)

Test [2] concerns acetyl CoA carboxylase (ACC). The test can be described thus: ACC phosphorylation / activation downstream of AMPK (Western blotting). The class given is cell-based. The conditions noted are these: PC-3 and LS174T cells. Here is the method:
as §1

The subject of test [3] is S6. The test is described as follows: S6 phosphorylation, mTor pathway (Western blotting). The class given is cell-based. The settings on record: PC-3 and LS174T cells. The method, then: as §1
In test [4] the target is T1, hydratase activity of HSD17B4 (Homo sapiens, UniProt P51659).
T1 construct: His-tag; made in house; host or cells: E. coli BL21 (pET28)
T1 sequence (P51659 1-736): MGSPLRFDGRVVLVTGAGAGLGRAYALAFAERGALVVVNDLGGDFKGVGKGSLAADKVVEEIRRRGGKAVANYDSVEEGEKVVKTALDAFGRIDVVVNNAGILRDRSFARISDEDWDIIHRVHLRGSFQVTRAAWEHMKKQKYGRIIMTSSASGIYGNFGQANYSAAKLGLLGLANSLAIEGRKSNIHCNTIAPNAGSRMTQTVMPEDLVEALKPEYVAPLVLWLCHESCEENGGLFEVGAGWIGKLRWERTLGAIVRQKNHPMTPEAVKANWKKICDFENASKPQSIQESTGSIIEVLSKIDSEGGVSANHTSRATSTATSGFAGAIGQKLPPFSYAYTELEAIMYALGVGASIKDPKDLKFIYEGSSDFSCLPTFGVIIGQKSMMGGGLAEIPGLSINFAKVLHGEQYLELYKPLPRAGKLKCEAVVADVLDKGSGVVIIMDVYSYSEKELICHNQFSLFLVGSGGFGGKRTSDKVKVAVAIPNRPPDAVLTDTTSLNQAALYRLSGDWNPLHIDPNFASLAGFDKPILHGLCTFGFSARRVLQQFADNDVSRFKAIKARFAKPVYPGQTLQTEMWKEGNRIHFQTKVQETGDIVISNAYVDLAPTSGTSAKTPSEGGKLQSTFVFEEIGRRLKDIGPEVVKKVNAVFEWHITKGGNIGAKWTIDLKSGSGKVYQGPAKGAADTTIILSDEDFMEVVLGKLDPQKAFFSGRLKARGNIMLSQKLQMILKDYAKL
The test can be described thus: HSD17B4 hydratase assay (crotonoyl CoA substrate). The format is biochemical. An excerpt: We acquired further evidence along these lines through studies using the N-terminal α,β-dehydrogenase and C-terminal hydratase fragments of HSD17B4 as well as the full-length protein. We evaluated the α,β-dehydrogenase activity using DL-3-hydroxylbutyryl-CoA as a substrate and the conversion of NAD^+ to NADH as a readout. We concomitantly measured the hydratase activity using crotonoyl-CoA as a substrate and the diminished ultraviolet absorption of the α,β-unsaturated thioester chromophore as readout. The full-length protein, as expected, had both enzyme activities (FIGS. 7A and 7B). The C-terminal-truncated fragments N318 and N634 but not the N-terminal-truncation fragment C919 had α,β-dehydrogenase activity (FIG. 7A). The C-terminal fragment N634 and the N-terminal fragment C919, but not the C-terminal fragment N318, had hydratase activity (FIG. 7B), as summarized in FIG. 3A.
The enzymatic activities of HSD17B4 were analyzed using the method reported by Novikov et al. (J. Biol. Chem., 1994, 269, 27125). […] The reaction was quantified by measuring the fluorescent product NADH (excitation: 340 nm; emission 460 nm). […] The reaction was quantified by measuring the remaining substrate using absorbance at 280 nm.

Test [5] concerns LS174T cancer cells. The test can be described thus: ATP analysis of treated cells. The class given is cell-based. Here is the method:
ATP analysis: Cells growing in 12-well plates were treated with DMSO or inhibitors, and lysed by adding 1 mL boiling D.D. water. Supernatants were analyzed by luminescence using ATP Determination Kit (Invitrogen, A22066).

The subject of test [6] is LS174T cells. The test is described as follows: Seahorse XF assay (OCR, ECAR). The class given is cell-based. An excerpt: (§2) We further characterized the effects of cytisine-linked isoflavonoid 10c on energy metabolism using a Seahorse XF assay (FIG. 4D-F) that measured oxygen consumption rate (OCR), which was an indicator of mitochondrial respiration, and measured extracellular acidification rate (ECAR), which was largely the result of glycolysis. […] Similar results were found in DLD-1 colon cancer cells and PC-3 prostate cancer cells (FIGS. 8 and 9). These OCR findings were consistent with the prior evaluation of these cytisine-linked isoflavonoids that targeted the hydratase activity in HSD17B4, inhibited VLCFA beta-oxidation, depressed acetyl CoA generation, decreased the ratio of ATP/AMP, and triggered AMPK activation (FIG. 5).
(§3) Seahorse assay: 3×10^4 cells were seeded in XF96 Cell Culture microplate (80 μL of 3.75×10^5 cells/m:). On the next day, cells were treated with DMSO or inhibitors and analyzed using the Seahorse analyzer in Redox Metabolism Shared Resource Facility (RM SRF) at the Markey Cancer Center.

In test [7] the test system is DLD1 colon cancer cells. The test is described as follows: Seahorse XF assay. The class given is cell-based.
Excerpt: as §2, §3

For test [8], the system named is PC-3 prostate cancer cells. The test is described as follows: Seahorse XF assay. The conditions noted are these: PC-3 cells. The class given is cell-based.
Excerpt: as §2, §3

Structures are written as SMILES.

For `O=c1c(-c2ccc(Cl)cc2)coc2cc(OCCN3C[C@@H]4C[C@@H](C3)c3cccc(=O)n3C4)ccc12` [Compound 10c, (1 S,5S)-3-(2-((3-(4-chlorophenyl)-4-oxo-4H-chromen-7-yl)oxy)ethyl)-3,4,5,6-tetrahydro-1H-1,5-methanopyrido[1,2-a][1,5]diazocin-8(2H)-one], the AMPK activation entry in test [1] (LS174T colon cancer cells) and in test [1] (PC-3 prostate cancer cells) was “activated AMPK” throughout. Besides, the ACC phosphorylation entry in test [2] is on record as “induced appreciable ACC phosphorylation”. Also, in test [3], the “phosphorylation of S6” value was “inhibited the phosphorylation”. Further, in test [4], the “effect on hydratase activity” value is on record as “significantly inhibited”. Also, the “level of ATP” value in test [5] is reported as “decreased the levels”. Also, the respiration rates entry in test [6] was “significantly reduced the respiration rates”. The “levels of ATP production” value in test [6] (OCR and ECAR assays) is reported as “reduced the levels of ATP production”. Further, the ATP production result in test [7] is “reduced”. Moreover, the respiration rate entry in test [7] and in test [8] was “reduced respiration rate” each time.
